Where a name gives a salt, the structure may show the parent alone.
Columns and labels:
[1] = test system: Pseudotyped HCV GT1b particles (HCVpp), entry into Huh7-high CD81 cells; assay: microbe, parasite or virus in culture; format: cell-based, HCV GT1b Con1 strain; conditions: Hepatitis C virus, GT1B, 72 h, read-out: HCVpp GT-1b (EC50, μM)
[2] = test system: pseudotyped VSV G particles (VSVpp) in Huh7-high CD81 cells; assay: microbe, parasite or virus in culture; format: cell-based, vesicular stomatitis virus; conditions: Vesicular stomatitis virus, 72 h, read-out: VSVpp (EC50, μM)

Nc1nc(Nc2cc(Cl)c(-c3cccc(C(F)(F)F)c3)c(Cl)c2)n[nH]1 [Compound 108, N-3-(2,6-Dichloro-3′-trifluoromethyl-biphenyl-4-yl)-1H-[1,2,4]triazole-3,5-diamine]
EC50 [1]: 0.014 µM
EC50 [2]: 29 µM

Nc1nc(Nc2cc(Cl)c(-c3cccc(Cl)c3Cl)c(Cl)c2)n[nH]1 [Compound 109, N-3-(2,6,2′,3′-Tetrachloro-biphenyl-4-yl)-1H-[1,2,4]triazole-3,5-diamine]
EC50 [1]: 0.74 µM
EC50 [2]: 46.5 µM

COC(=O)c1ccc(-c2c(Cl)cc(Nc3n[nH]c(N)n3)cc2Cl)cc1 [Compound 110, 4′-(5-Amino-1H-[1,2,4]triazol-3-ylamino)-2′,6′-dichloro-biphenyl-4-carboxylic acid methyl ester]
EC50 [1]: 0.1 µM
EC50 [2]: 25 µM

CN(C)C(=O)c1ccc(-c2c(Cl)cc(Nc3n[nH]c(N)n3)cc2Cl)cc1 [Compound 113, 4′-(5-Amino-1H-[1,2,4]triazol-3-ylamino)-2′,6′-dichloro-biphenyl-4-carboxylic acid dimethylamide]
EC50 [1]: 0.079 µM
EC50 [2]: 43.2 µM

CNS(=O)(=O)c1cccc(-c2c(Cl)cc(Nc3n[nH]c(N)n3)cc2Cl)c1 [Compound 119, 4′-(5-Amino-1H-[1,2,4]triazol-3-ylamino)-2′,6′-dichloro-biphenyl-3-sulfonic acid methylamide]
EC50 [1]: 0.046 µM
EC50 [2]: 3.94 µM

COc1ccccc1-c1c(Cl)cc(Nc2n[nH]c(N)n2)cc1Cl [Compound 120, N-3-(2,6-Dichloro-2′-methoxy-biphenyl-4-yl)-1H-[1,2,4]triazole-3,5-diamine]
EC50 [1]: 0.181 µM
EC50 [2]: 1.12 µM

CS(=O)(=O)c1ccc(-c2c(Cl)cc(Nc3n[nH]c(N)n3)cc2Cl)cc1F [Compound 121, N-3-(2,6-Dichloro-3′-fluoro-4′-methanesulfonyl-biphenyl-4-yl)-1H-[1,2,4]triazole-3,5-diamine]
EC50 [1]: 0.068 µM
EC50 [2]: 0.08 µM

Nc1nc(Nc2cc(Cl)c(-c3ccc(Cl)cc3Cl)c(Cl)c2)n[nH]1 [Compound 124, N-3-(2,6,2′,4′-Tetrachloro-biphenyl-4-yl)-1H-[1,2,4]triazole-3,5-diamine]
EC50 [1]: 1.01 µM
EC50 [2]: 4.49 µM

CN(CCOc1ccc(-c2c(Cl)cc(Nc3n[nH]c(N)n3)cc2C(F)(F)F)cc1)C(=O)OC(C)(C)C [Compound 125, {2-[4′-(5-Amino-1H-[1,2,4]triazol-3-ylamino)-6′-chloro-2′-trifluoromethyl-biphenyl-4-yloxy]-ethyl}-methyl-carbamic acid tert-butyl ester]
EC50 [1]: 0.096 µM
EC50 [2]: > 10 µM

CNCCOc1ccc(-c2c(Cl)cc(Nc3n[nH]c(N)n3)cc2C(F)(F)F)cc1 [Compound 126, N*3*-[6-Chloro-4′-(2-methylamino-ethoxy)-2-trifluoromethyl-biphenyl-4-yl]-1H-[1,2,4]triazole-3,5-diamine hydrochloride]
EC50 [1]: 0.088 µM
EC50 [2]: > 10 µM

CN1C(C)(C)CC(Sc2ccc(-c3c(Cl)cc(Nc4n[nH]c(N)n4)cc3C(F)(F)F)cc2)CC1(C)C [Compound 127, N*3*-[6-Chloro-4′-(1,2,2,6,6-pentamethyl-piperidin-4-ylsulfanyl)-2-trifluoromethyl-biphenyl-4-yl]-1H-[1,2,4]triazole-3,5-diamine]
EC50 [1]: 0.144 µM
EC50 [2]: 9.69 µM

CN(C(=O)OC(C)(C)C)C(C)(C)COc1ccc(-c2c(Cl)cc(Nc3n[nH]c(N)n3)cc2C(F)(F)F)cc1 [Compound 128, {2-[4′-(5-Amino-1H-[1,2,4]triazol-3-ylamino)-6′-chloro-2′-trifluoromethyl-biphenyl-4-yloxy]-1,1-dimethyl-ethyl}-methyl-carbamic acid tert-butyl ester]
EC50 [1]: 0.011 µM
EC50 [2]: 9.26 µM

CC(C)(C)OC(=O)N1CCCC(Oc2ccc(-c3c(Cl)cc(Nc4n[nH]c(N)n4)cc3C(F)(F)F)cc2)C1 (centres unmarked) [Compound 129, 3-[4′-(5-Amino-1H-[1,2,4]triazol-3-ylamino)-6′-chloro-2′-trifluoromethyl-biphenyl-4-yloxy]-piperidine-1-carboxylic acid tert-butyl ester]
EC50 [1]: 0.017 µM
EC50 [2]: 9.62 µM

Reference: patent US9693997B2, “Antiviral compounds” (priority 2013, dated 2017)
